Test results: ChEMBL document CHEMBL1151871, “SAR around (l)-S-adenosyl-l-homocysteine, an inhibitor of human DNA methyltransferase (DNMT) enzymes” (Bioorg Med Chem Lett, 2009)
The source made the active and inactive calls. No cut-off for these calls is given here.

What was measured:
[1] = target: T1, DNA (cytosine-5)-methyltransferase 3B (Homo sapiens, UniProt Q9UBC3); experiment: biochemical
[2] = target: DNA (cytosine-5)-methyltransferase 1 (Homo sapiens, UniProt P26358); experiment: Inhibition of human recombinant DNMT1 expressed in baculovirus infected high five insect cells
[3] = target: T1, DNA (cytosine-5)-methyltransferase 3B; experiment: Inhibition of human recombinant DNMT3b2 expressed in baculovirus infected high five insect cells at 45 uM

DNA (cytosine-5)-methyltransferase 1, sequence (P26358 whole entry): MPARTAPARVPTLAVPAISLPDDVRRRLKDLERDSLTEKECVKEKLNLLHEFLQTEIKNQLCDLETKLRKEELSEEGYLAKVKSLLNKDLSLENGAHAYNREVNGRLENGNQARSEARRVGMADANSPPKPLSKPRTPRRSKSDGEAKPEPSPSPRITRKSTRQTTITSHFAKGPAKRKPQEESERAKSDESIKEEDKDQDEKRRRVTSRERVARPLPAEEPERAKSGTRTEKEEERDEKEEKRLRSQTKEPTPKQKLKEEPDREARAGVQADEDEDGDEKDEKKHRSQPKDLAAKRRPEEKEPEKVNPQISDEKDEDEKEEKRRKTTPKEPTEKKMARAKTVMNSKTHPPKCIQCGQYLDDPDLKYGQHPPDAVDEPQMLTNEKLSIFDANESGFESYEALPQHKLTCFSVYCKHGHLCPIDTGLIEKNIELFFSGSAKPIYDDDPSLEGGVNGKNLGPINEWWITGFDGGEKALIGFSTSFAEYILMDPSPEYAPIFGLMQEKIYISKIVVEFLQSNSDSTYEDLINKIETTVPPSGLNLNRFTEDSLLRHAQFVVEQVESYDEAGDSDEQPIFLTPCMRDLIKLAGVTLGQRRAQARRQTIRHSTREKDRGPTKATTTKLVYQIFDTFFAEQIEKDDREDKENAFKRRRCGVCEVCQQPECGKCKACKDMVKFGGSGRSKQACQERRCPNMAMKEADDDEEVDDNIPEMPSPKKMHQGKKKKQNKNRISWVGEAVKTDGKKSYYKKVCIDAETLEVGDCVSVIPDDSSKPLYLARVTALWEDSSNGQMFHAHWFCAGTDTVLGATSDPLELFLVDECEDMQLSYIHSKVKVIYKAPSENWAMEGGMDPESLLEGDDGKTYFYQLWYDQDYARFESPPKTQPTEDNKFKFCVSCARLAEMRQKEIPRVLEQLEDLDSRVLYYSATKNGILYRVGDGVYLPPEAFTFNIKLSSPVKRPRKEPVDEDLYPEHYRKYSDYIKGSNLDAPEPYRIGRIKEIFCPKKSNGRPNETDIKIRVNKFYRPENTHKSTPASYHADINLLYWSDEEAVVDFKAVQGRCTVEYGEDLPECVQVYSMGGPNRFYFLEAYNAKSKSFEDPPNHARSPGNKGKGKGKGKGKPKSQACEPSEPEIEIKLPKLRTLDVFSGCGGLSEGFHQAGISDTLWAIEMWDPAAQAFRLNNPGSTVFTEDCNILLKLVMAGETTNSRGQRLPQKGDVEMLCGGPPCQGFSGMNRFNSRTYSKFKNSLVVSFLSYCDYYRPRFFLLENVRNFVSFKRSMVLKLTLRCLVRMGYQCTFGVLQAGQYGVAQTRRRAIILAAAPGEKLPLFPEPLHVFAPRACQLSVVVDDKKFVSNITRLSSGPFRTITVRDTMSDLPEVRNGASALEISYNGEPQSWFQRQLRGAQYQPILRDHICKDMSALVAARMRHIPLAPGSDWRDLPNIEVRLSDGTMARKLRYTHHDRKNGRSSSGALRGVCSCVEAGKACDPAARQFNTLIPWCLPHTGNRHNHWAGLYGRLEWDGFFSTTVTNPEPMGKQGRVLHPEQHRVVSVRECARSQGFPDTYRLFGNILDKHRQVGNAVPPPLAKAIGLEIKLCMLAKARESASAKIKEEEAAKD

| IC50 [1] | IC50 [2] | inhibition [3] | Structure (SMILES) |
| --- | --- | --- | --- |
| 0.3 µM |  |  | Nc1ncnc2c1ncn2[C@@H]1O[C@H](CSCC[C@H](N)C(=O)O)[C@@H](O)[C@H]1O (racemic) [S-ADENOSYLHOMOCYSTEINE] |
| > 1000 µM |  |  | N[C@@H](CCSC[C@H]1O[C@@H](n2cnc3c(=O)[nH]cnc32)[C@H](O)[C@@H]1O)C(=O)O |
| 1 µM | 61 µM |  | NC(CCSC[C@H]1O[C@@H](n2cnc3c(NCc4ccccc4)ncnc32)[C@H](O)[C@@H]1O)C(=O)O (some centres undefined) |
|  | 75 µM | inactive | COc1nc(N)c2ncn([C@@H]3O[C@H](CSCCC(N)C(=O)O)[C@@H](O)[C@H]3O)c2n1 (some centres undefined) |
| 500 µM | 216 µM |  | CSc1nc(N)c2ncn([C@@H]3O[C@H](CSCCC(N)C(=O)O)[C@@H](O)[C@H]3O)c2n1 (some centres undefined) |
|  | 8 µM |  | Nc1ncnc2c1nnn2[C@@H]1O[C@H](CSCCC(N)C(=O)O)[C@@H](O)[C@H]1O (some centres undefined) |
